Values of other authors as cited in patent US8604084B2, “Method” (GlaxoSmithKline, LLC, priority 2008, dated 2013).

CC(=O)Nc1ccc(O)cc1 [Paracetamol]
mean plasma half-life (adults): 2.4 h | plasma half-life, range (adults): 1.5 to 3.0 h | plasma protein binding (in vivo): not bound to plasma protein to any extent | absolute oral bioavailability (independent of dose in the range of 5-20 mg/kg): about 80% | volume of distribution (per body weight): about 0.9 litre/kilogram
